Source: patent US8258186B2, “Pharmaceutical for oral delivery comprising MGBG” (Pathologica, LLC, priority 2009, dated 2012)

Legend:
[1] = tested on: carrageenan air pouch inflammation; assay: Carrageenan air pouch model; assay type: in vivo, Swiss Webster mice; conditions: mice, MGBG PO BID 3, 10, 30 mg/kg/dose
Excerpt: Injection of air subcutaneously will induce the formation of a connective tissue cavity lined with cells that resemble and function like a synovial lining. This method is commonly known as the Air Pouch Model and is a useful animal model of inflammation that can be generated in a relatively short period of time. The air pouch may be created by subcutaneous (SQ) injection of a volume of sterile air in the dorsal neck region. The model may be used to test the efficacy and potency of compounds such as polyamine analogues and polyamine biosynthesis inhibitors such as MGBG in reducing various cellular and biochemical indicators of inflammation when administered as an oral (PO) gavage administration.
Animals, compounds, and dosing. Healthy male Swiss Webster mice of 7-9 weeks of age and at least 30 g in weight were used. Animals were divided into six groups of thirty. Each group was administered 6 mL of air subcutaneously as described below on days 4 and 7. […] Tolerance of test compound dosing was monitored in mice by daily visual inspections of physical and behavioral changes, such as examined changes in body posture, hair coat, activity, excreta, etc., and dosing reevaluated upon negative findings. […]
Exudate, Plasma, and Histological Collection. The systemic exposure of the test article was evaluated as follows. Plasma samples were prepared and evaluated as follows. […]

[2] = Multi-dose rat pharmacokinetic and tolerability study; assay type: in vivo, Sprague Dawley rats; conditions: for AUC / CL/F / fold increase in mean AUCall compared to Study Day 1 / AUC(0-t) / Cmax / Tmax: male, Sprague Dawley; for fold increase in mean AUCall compared to Study Day 1: 7 days
Protocol: The purpose of this study was to determine the pharmacokinetic (PK) properties and tolerability of MGBG in rats. Additionally, recovery from any toxic effects was assessed after a seven day non-dosing period.
Three per group of male Sprague Dawley (CD® MS, Charles River) aged 7-9 weeks and weighing 222.7-252.0 g were administered by oral (PO) gavage, twice daily, at 10, 20, or 30 mg/kg/dose (20, 40, or 60 mg/kg/day) for seven consecutive days. A washout period of seven days followed. Collection of approximately 200 μL of whole blood was collected from the tail vein of all animals in Groups 5, 6, and 7 were bled at six (Day 1), seven (Day 7), or one (Days 9 through 15) time point(s), respectively. Whole blood samples were collected in a lithium heparin microtainer and processed to plasma by centrifugation. Plasma was frozen at −70° C. Pharmacokinetic analyses were performed on the individual animal plasma concentration versus time data for MGBG using WinNonlin (linear trapezoidal rule for AUC calculations). Nominal dose values and sampling times were used for calculations. For Study Day 7, the reported values for MGBG concentrations at time zero were used in the calculations of AUC. Study Day 1 disposition parameters were not reported due to insufficient terminal phase data to adequately characterize these parameters.
On Study Day 7, evidence of dose-dependent dispositions for Cl/Fobs and elimination half-life were observed as mean parameter values for Cl/Fobs and elimination half-life increased and decreased, respectively, with increasing dose levels.
Based on the findings of this exploratory study, the no observable adverse effect level (NOAEL) for MGBG administered by PO gavage twice daily for seven consecutive days to male Sprague Dawley rats is 30 mg/kg/dose (60 mg/kg/day).

With `CC(/C=N/NC(=N)N)=N\NC(=N)N` [MGBG, 1,1′[methylethanediylidene]dinitrilodiguanidine] the “efficacy, changes relative to control indicative of reduced inflammation” value [1] was “efficacious”, the “increase of systemic exposure (Cmax and AUCall) with increasing dose” value ([2]; in vivo) was “slightly less than dose-proportional” and the “hematology parameters versus control group” value ([2]; in vivo, 60 mg/kg/day) was “lower reticulocyte count and percentage”. The “serum chemistry parameters versus control group” value ([2]; in vivo, 60 mg/kg/day) was “osmolality and electrolyte changes consistent with slight dehydration”, the NOAEL at 7 days ([2]; in vivo, male Sprague Dawley rats, PO gavage twice daily, seven consecutive days, read-out: no observable adverse effect level (NOAEL)) was 60 mg/kg/day and the “systemic exposure, plasma Day 1 and Day 7” value ([2]; in vivo, po) was “systemic exposure to the test article at all time points”. The AUC ([2]; in vivo, po, 20 mg/kg/day) was 7930 ng·h/mL, the CL/F ([2]; in vivo, po, 20 mg/kg/day) was 24.3 mL/min/kg and the “fold increase in mean AUCall compared to Study Day 1” value (“fold increase in mean AUCall” for short) ([2]; in vivo, po, 20 mg/kg/day) was 3.77 fold. It also gave an AUC(0-t) ([2]; in vivo, po, 20 mg/kg/day, AUC0-12) of 773 ng·h/mL, an AUC(0-t) ([2]; in vivo, po, 20 mg/kg/day, AUC0-24) of 1750 ng·h/mL and a Cmax ([2]; in vivo, po, 20 mg/kg/day) of 124 ng/mL. For the same compound, the Tmax ([2]; in vivo, po, 20 mg/kg/day, Tmax) was 10 h, the AUC ([2]; in vivo, po, 40 mg/kg/day) was 13700 ng·h/mL and the CL/F ([2]; in vivo, po, 40 mg/kg/day) was 28.2 mL/min/kg. For the same compound, the “fold increase in mean AUCall” value ([2]; in vivo, po, 40 mg/kg/day) was 4.03 fold, the AUC(0-t) ([2]; in vivo, po, 40 mg/kg/day, AUC0-12) was 1380 ng·h/mL and the AUC(0-t) ([2]; in vivo, po, 40 mg/kg/day, AUC0-24) was 2980 ng·h/mL. For the same compound, the Cmax ([2]; in vivo, po, 40 mg/kg/day) was 175 ng/mL, the Tmax ([2]; in vivo, po, 40 mg/kg/day, Tmax) was 7.33 h and the AUC ([2]; in vivo, po, 60 mg/kg/day) was 17100 ng·h/mL. The CL/F ([2]; in vivo, po, 60 mg/kg/day) was 35.8 mL/min/kg, the “fold increase in mean AUCall” value ([2]; in vivo, po, 60 mg/kg/day) was 3.68 fold and the AUC(0-t) ([2]; in vivo, po, 60 mg/kg/day, AUC0-12) was 2170 ng·h/mL. It also gave an AUC(0-t) ([2]; in vivo, po, 60 mg/kg/day, AUC0-24) of 4380 ng·h/mL, a Cmax ([2]; in vivo, po, 60 mg/kg/day) of 296 ng/mL and a Tmax ([2]; in vivo, po, Tmax values over the dose range evaluated) of 3.33 to 14 h. The “gross or microscopic lesions at terminal sacrifice” value ([2]; test article-treated animals) was “No gross or microscopic lesions were observed”.
